The results in this text go back to patent publication US9469645B2, “Compounds and compositions for the treatment of parasitic diseases” (Novartis AG, priority 2009, dated 2016).

Where two headings read alike, the source gives them in different places.

The subject of one test is 3D7 P. falciparum strain. Kind of test: parasite proliferation assay in infected red blood cells (SYBR Green I). It is filed as cell-based, Plasmodium falciparum. To be noted: 3D7 strain, read-out: EC50 3D7 strain. An excerpt:
(§1) Compounds of the invention can be assayed to measure their capacity to inhibit proliferation of parasitemia in infected red blood cells. The proliferation is quantified by the addition of SYBR Green I (INVITROGEN)® dye which has a high affinity for double stranded DNA.
The following assay illustrates the invention without in any way limiting the scope of the invention. This parasite proliferation assay measures the increase in parasite DNA content using a DNA intercalating dye, SYBR Green®.
3D7 P. falciparum strain is grown in complete culturing media until parasitemia reaches 3% to 8% with O+ human erythrocytes. 20 μl of screening media is dispensed into 384 well assay plates. […] 10 μl of lysis buffer (saponin, triton-X, EDTA) containing a 10× solution of SYBR Green I® in RPMI media is dispensed into the plates. The plates are lidded and kept at room temperature overnight for the lysis of the infected red blood cells.

For another test, the system named is W2 strain. Briefly: parasite proliferation assay in infected red blood cells (SYBR Green I), W2 strain. The class given is cell-based.
Text: as §1

Setting [1] is: Plasmodium falciparum, 3D7, Erythrocyte.
[2] abbreviates: Plasmodium falciparum, Erythrocyte.

The EC50 is the midpoint of the concentration-response curve. As to `Cc1ccc(Nc2c(-c3ccc(F)cc3)nc3n2CCN(C(=O)C2CCCNC2)C3)cc1` (centres unmarked) [Compound 92], the 50% effective concentration (EC50) stood at 1300 nM in the test on 3D7 P. falciparum strain and 1480 nM in the test with W2 strain.
With `CNCC(=O)N1CCn2c(nc(-c3ccc(F)cc3)c2Nc2ccc(C)cc2)C1` [Compound 75], the figures for the EC50 in the test on 3D7 P. falciparum strain (setting [1]) and in the test on W2 strain (Erythrocyte) were 250 nM and 190 nM, respectively.
As for `CC1(C)c2nc(-c3ccc(F)cc3)c(Nc3ccc(F)c(C(F)(F)F)c3)n2CCN1C(=O)CN` [Compound 657], the EC50 in the test with 3D7 P. falciparum strain (setting [1]) amounted to 618 nM; in the test on W2 strain (setting [2]), 1090 nM.
The like results for `CC(C)(N)C(=O)N1CCn2c(nc(-c3ccc(F)cc3)c2Nc2ccc(C(F)(F)F)c(Cl)c2)C1` [Compound 633] were, in that order, 528 nM and 331 nM.
As to `Cc1ccc(Nc2c(-c3ccc(F)cc3)nc3n2CCN(C(=O)CNc2cccc(Cl)c2)C3)cc1` [Compound 361], the EC50 in the test on 3D7 P. falciparum strain (setting [1]) was determined as 2350 nM; in the test with W2 strain (Erythrocyte) it was 1140 nM.
`Cc1ccc(Nc2c(-c3ccc(F)cc3)nc3n2CCCC3)cc1` [Compound 750]: the EC50 is 4770 nM in the test with 3D7 P. falciparum strain (setting [1]) and 4960 nM with W2 strain (setting [2]).
For `O=C(CN1CCCC(F)(F)C1)N1CCn2c(nc(-c3ccc(F)cc3)c2Nc2ccc(Cl)cc2)C1` [Compound 76], the EC50 in the test with 3D7 P. falciparum strain (setting [1]) was 60 nM; in the test with W2 strain (Erythrocyte), 61 nM.
With `CC(C)(C)OC(=O)N[C@@H](CC(=O)O)C(=O)N1CCn2c(nc(-c3cccc(F)c3)c2Nc2ccc(Cl)c(F)c2)C1` [Compound 240], the half-maximal effective concentration (EC50) with 3D7 P. falciparum strain (setting [1]) amounted to 10500 nM; in the test with W2 strain (Erythrocyte), 6990 nM.
`CC(C)C[C@H](O)C(=O)N1CCn2c(nc(-c3ccc(F)cc3)c2Nc2ccc(Cl)c(F)c2)C1` [Compound 358]: the 50% effective concentration (EC50) in the test with 3D7 P. falciparum strain (setting [1]) is 130 nM; in the test with W2 strain (Erythrocyte) it was 49 nM.
`CC1(C)c2nc(-c3ccc(F)cc3)c(NC3CCC(C(F)(F)F)CC3)n2CCN1C(=O)CN` (centres unmarked) [Compound 662]: the EC50 in the test on 3D7 P. falciparum strain (setting [1]) stood at 38 nM; in the test on W2 strain (setting [2]) it was 33 nM.
With `Cc1ccc(Nc2c(-c3ccc(F)cc3)nc3n2CCN(C(=O)[C@H](N)CC(=O)O)C3)cc1` [Compound 287], the EC50 came out at 4360 nM with 3D7 P. falciparum strain (setting [1]) and 7260 nM in the test with W2 strain (Erythrocyte).
For the compound `Cc1cc(Nc2c(-c3cccc(F)c3)nc3n2CC(=O)N(CCCC(=O)O)C3(C)C)ccc1F` [Compound 692, 4-(3-(4-fluoro-3-methylphenylamino)-2-(3-fluorophenyl)-8,8-dimethyl-6-oxo-5,6-dihydroimidazo[1,2-a]pyrazin-7(8H)-yl)butanoic acid], the EC50 in the test on 3D7 P. falciparum strain (setting [1]) is 6450 nM; in the test on W2 strain (setting [2]), 5340 nM.
For `CCCNC(=O)CC[C@H](N)C(=O)N1CCn2c(nc(-c3ccc(F)cc3)c2Nc2ccc(C)cc2)C1` [Compound 188], the EC50 with 3D7 P. falciparum strain (setting [1]) is 790 nM; in the test with W2 strain (Erythrocyte), 1100 nM.
Take `Cc1ccc(Nc2c(-c3ccc(F)cc3)nc3n2CCN(C(=O)[C@@H](O)CC(C)C)C3)cc1` [Compound 134]: the EC50 in the test on 3D7 P. falciparum strain (setting [1]) is 10 nM; with W2 strain (Erythrocyte), 7 nM.
For `Cc1ccc(Nc2c(-c3ccc(F)cc3)nc3n2CCN(C(=O)C2CCCNC2)C3)cc1` (centres unmarked) [Compound 87], the EC50 in the test on 3D7 P. falciparum strain came out at 20 nM; with W2 strain it was 12 nM.
For `Cc1ccc(Nc2c(-c3ccc(F)cc3)nc3n2CCN(C(=O)[C@H](O)C2CCCCC2)C3)cc1` [Compound 121], the EC50 in the test on 3D7 P. falciparum strain (setting [1]) came out at 20 nM; in the test on W2 strain (Erythrocyte), 33 nM.
The like results for `Cc1ccc(Nc2c(-c3ccncc3)nc3n2CCN(C(=O)CN)C3)cc1` [Compound 382] were, in that order, 1050 nM and 1040 nM.
The like results for `CCC[C@H](NC)C(=O)N1CCn2c(nc(-c3ccc(F)cc3)c2Nc2ccc(C)cc2)C1` [Compound 392] were, in that order, 30 nM and 39 nM.
On the same counts, the results for `Cc1ccc(Nc2c(-c3ccc(F)cc3)nc3n2CCN(C(=O)[C@@H]2Cc4[nH]cnc4CN2)C3)cc1` [Compound 176] are 2750 nM and 1790 nM.
Take `CC(C)(N)C(=O)N1CCn2c(nc(-c3ccc(F)cc3)c2Nc2cccc(OC(F)(F)F)c2)C1` [Compound 640]: the EC50 in the test on 3D7 P. falciparum strain (setting [1]) stood at 3950 nM; with W2 strain (setting [2]), 4510 nM.
As to `Fc1ccc(Nc2c(-c3ccc(F)cc3)nc3n2CCN(Cc2ccccc2)C3)cc1` [Compound 48], the EC50 with 3D7 P. falciparum strain (setting [1]) worked out at 1840 nM; in the test with W2 strain (Erythrocyte), 1750 nM.
For the compound `CC1CCc2nc(-c3ccc(F)cc3)c(Nc3ccc(Cl)c(F)c3)n2C1` (centres unmarked) [Compound 754], the EC50 in the test with 3D7 P. falciparum strain (setting [1]) was found to be 104 nM; with W2 strain (setting [2]), 190 nM.
As to `CN1CCn2c(nc(-c3ccc(F)cc3)c2Nc2ccc(F)c(Cl)c2)C1(C)C` [Compound 627], the EC50 with 3D7 P. falciparum strain (setting [1]) came out at 170 nM; in the test with W2 strain (setting [2]), 194 nM.
Regarding `CC(C)(N)C(=O)N1CCn2c(nc(-c3ccc(F)cc3)c2Cc2ccc(F)cc2)C1` [Compound 697], the values for the EC50 in the test with 3D7 P. falciparum strain (setting [1]) and in the test on W2 strain (setting [2]) were 362 nM and 256 nM, respectively.
On to `CC[C@H](C(=O)N1CCn2c(nc(-c3ccc(F)cc3)c2Nc2ccc(C)cc2)C1)c1ccccc1` [Compound 225], for which the EC50 was 550 nM in the test on 3D7 P. falciparum strain (setting [1]) and 316 nM with W2 strain (Erythrocyte).
With `CC(C)[C@@H](O)C(=O)N1CCn2c(nc(-c3ccc(F)cc3)c2Nc2ccc(Cl)c(F)c2)C1` [Compound 360], the EC50 was 30 nM with 3D7 P. falciparum strain (setting [1]) and 15 nM in the test on W2 strain (Erythrocyte).
The like results for `Cc1ccc(Nc2c(-c3ccc(F)cc3)nc3n2CCN(C(=O)C2CCOCC2)C3)cc1` [Compound 209] were, in that order, 11600 nM and 4360 nM.
On to `O=C(CN1CC[C@@H](F)C1)N1CCn2c(nc(-c3ccc(F)cc3)c2Nc2ccc(F)cc2)C1` [Compound 58], for which the EC50 turned out to be 470 nM in the test with 3D7 P. falciparum strain (setting [1]) and 280 nM in the test on W2 strain (Erythrocyte).
On the same counts, the results for `NCC(=O)N1CCn2c(nc(-c3ccc(F)cc3)c2Nc2ccc(Cl)cc2)C1` [Compound 40] are 10 nM and 9 nM.
As to `Cc1ccc(Nc2c(-c3ccc(F)cc3)nc3n2CCN(C(=O)[C@H](Cc2ccccc2)N(C)C)C3)cc1` [Compound 177], the EC50 in the test on 3D7 P. falciparum strain (setting [1]) and with W2 strain (Erythrocyte) was 430 nM each time.
Turning to `Cc1ccc(Nc2c(-c3ccc(F)cc3)nc3n2CCN(C(=O)CN2CCC(CCN)CC2)C3)cc1` [Compound 178], the EC50 in the test with 3D7 P. falciparum strain (setting [1]) came out at 3050 nM; with W2 strain (Erythrocyte) it was 3320 nM.
In the case of `N[C@@H](Cc1cscn1)C(=O)N1CCn2c(nc(-c3ccc(F)cc3)c2Nc2ccc(Cl)c(F)c2)C1` [Compound 315], the EC50 is 20 nM with 3D7 P. falciparum strain (setting [1]) and 8 nM with W2 strain (Erythrocyte).
The like results for `Cc1ccc(Nc2c(-c3ccc(F)cc3)nc3n2CCN(C(=O)[C@@H](NC(=O)CCOCCOCCOCCOCCNC(=O)CCCCC2SCC4NC(=O)NC42)c2ccccc2)C3)cc1` (some centres unmarked) [Compound 298] were, in that order, 610 nM and 193 nM.
As to `CC1(C)c2nc(-c3ccc(F)cc3)c(Sc3ccc(F)c(F)c3)n2CCN1C(=O)CN` [Compound 718], the figures for the EC50 with 3D7 P. falciparum strain (setting [1]) and with W2 strain (setting [2]) were 8 nM and 6 nM, respectively.
Turning to `Cc1ccc(Nc2c(-c3ccc(F)cc3)nc3n2CCN(C(=O)C2(N)CCCC2)C3)cc1` [Compound 140], the results for the EC50 with 3D7 P. falciparum strain (setting [1]) and in the test with W2 strain (Erythrocyte) were 90 nM and 128 nM, respectively.
For the compound `O=C(Cc1n[nH]c2ccccc12)N1CCn2c(nc(-c3ccc(F)cc3)c2Nc2ccc(Cl)c(F)c2)C1` [Compound 306], the EC50 with 3D7 P. falciparum strain (setting [1]) was 420 nM; in the test with W2 strain (Erythrocyte), 334 nM.
Consider `CC(C)(N)C(=O)N1CCn2c(nc(-c3c(F)cc(F)cc3F)c2Nc2ccc(F)cc2)C1` [Compound 12], for which the EC50 with 3D7 P. falciparum strain (setting [1]) was 7400 nM; with W2 strain (Erythrocyte), 2960 nM.
On the same counts, the results for `CN(C)CC(=O)N1CCn2c(nc(-c3ccc(F)cc3)c2Nc2ccc(F)cc2)C1` [Compound 22] are 1300 nM and 691 nM.
Regarding `Cc1ccc(Nc2c(-c3ccc(F)cc3)nc3n2CCN(C(=O)C(c2ccccc2)C2CCCC2)C3)cc1` (centres unmarked) [Compound 226], the EC50 is 480 nM in the test with 3D7 P. falciparum strain (setting [1]) and 348 nM with W2 strain (Erythrocyte).
The like results for `CCCN(CCC)CC(=O)N1CCn2c(nc(-c3ccc(F)cc3)c2Nc2ccc(C)cc2)C1` [Compound 147] were, in that order, 2430 nM and 1520 nM.
In the case of `CC1(C)c2nc(-c3ccc(F)cc3)c(Nc3ccc(F)cc3)n2CCN1C(=O)CNC(=O)CCc1ccccc1` [Compound 726], the EC50 was found to be 1920 nM in the test on 3D7 P. falciparum strain (setting [1]) and 1480 nM in the test on W2 strain (setting [2]).
Turning to `Cc1ccc(Nc2c(-c3ccncc3)nc3n2CCNC3)cc1` [Compound 354], the values for the EC50 in the test on 3D7 P. falciparum strain (setting [1]) and with W2 strain (Erythrocyte) were 6320 nM and 564 nM, respectively.
Take `CC1(C)c2nc(-c3ccc(F)cc3)c([S+]([O-])c3ccc(Cl)cc3)n2CCN1C(=O)CN` (centres unmarked) [Compound 724]: the EC50 with 3D7 P. falciparum strain (setting [1]) is 509 nM; in the test with W2 strain (setting [2]) it was 287 nM.
For `Cc1ccc(Nc2c(-c3ccc(F)cc3)nc3n2CCN(CCN2CCn4c(nc(-c5ccc(F)cc5)c4Nc4ccc(C)cc4)C2)C3)cc1` [Compound 155], the EC50 in the test with 3D7 P. falciparum strain (setting [1]) amounted to 2140 nM; in the test with W2 strain (Erythrocyte) it was 491 nM.
As to `CC(C)(C)OC(=O)N[C@@H](CC(=O)OCc1ccccc1)C(=O)N1CCn2c(nc(-c3cccc(F)c3)c2Nc2ccc(F)cc2)C1` [Compound 237], the EC50 in the test on 3D7 P. falciparum strain (setting [1]) was 7190 nM; in the test with W2 strain (Erythrocyte), 5720 nM.
For the compound `CN1CCC(N2CCN(c3c(-c4ccc(F)cc4)nc4n3CCN(C(=O)CN)C4(C)C)CC2)CC1` [Compound 673], the EC50 was 8870 nM in the test with 3D7 P. falciparum strain (setting [1]) and greater than 8720 nM with W2 strain (setting [2]).
Regarding `NC1(C(=O)N2CCn3c(nc(-c4ccc(F)cc4)c3Nc3ccc(F)cc3)C2)CC1` [Compound 45], the EC50 came out at 980 nM in the test on 3D7 P. falciparum strain (setting [1]) and 1340 nM with W2 strain (Erythrocyte).
Take `Cc1cc(Nc2c(-c3ccc(F)cc3)nc3n2CCN(C(=O)C(C)(C)N)C3)ccc1F` [Compound 628]: the EC50 with 3D7 P. falciparum strain (setting [1]) amounted to 33 nM; with W2 strain (setting [2]), 40 nM.
The like results for `Cc1ccc(Nc2c(-c3ccc(F)cc3)nc3n2CCN(C(=O)C(C)(C)N)C3)cc1C` [Compound 637] were, in that order, 27 nM and 26 nM.
